The source of these data is patent US11261183B2, “Sulfoximine glycosidase inhibitors” (Asceneuron SA, priority 2016, dated 2022).

In series [1] the target is Human O-GlcNAcase (His-Tagged hOGA) (Homo sapiens (Human), UniProt O60502). Kind of series: Human O-GlcNAcase enzyme inhibition assay. To be noted: His-Tagged hOGA 20 nM, FL-GlcNAc 10 μM, 60 min, room temperature, pH 6.5; read-out: Enzymatic OGA IC50. The format is biochemical. As for the experimental part: Example B01: Human O-GlcNAcase enzyme inhibition assay
5 μl of the appropriate concentration of a solution of inhibitor in McIlvaine's Buffer (pH 6.5) in 2% DMSO (for a dose response curve calculation) is added into each well of a 384-well plate (Greiner, 781900). Then, 20 nM of His-Tagged hOGA and 10 μM of FL-GlcNAc (Fluorescein mono-beta-D-(2-deoxy-2-N-acetyl) glucopyranoside; Marker Gene Technologies Inc, M1485) were added to the 384-well plate for a final volume of 20 μl. After incubation for 60 min at room temperature, the reaction was terminated by the addition of 10 μL of stop buffer (200 mM glycine, pH 10.75).

Series [2] is described as follows: Protein binding in mice plasma using Rapid Equilibrium Dialysis. It counts as in vitro ADME, CD1 mice. To be noted: 37° C.; for fraction unbound at 5 h, 1 µM: male, CD1, mouse, plasma, pH 7.4, CD1 mouse plasma; for % fraction unbound in mouse plasma: CD1 mouse plasma, 5 hours. The procedure: Example B04: Protein binding in mice plasma using Rapid Equilibrium Dialysis
• CD1 Mice Plasma: pooled male, K2-EDTA ([…]2, Bioreclammation, USA • Phosphate Buffered Saline (1×PBS), pH 7.4, 100 mM (Sigma, Cat No. P4417) • RED inserts (Pierce, Cat No. 9006, 8 kDa MWCO) • Sample Analysis: LC-MS/MS Methods • Preparation of DMSO Stock Solution
From 20 mM DMSO stock solutions of reference and test compounds, 1 mM DMSO intermediate working solutions are prepared. From 1 mM intermediate working solutions, 100 μM DMSO working solutions are prepared. • Sample Preparation Procedure:
Selected plasma is brought from −20° C. to 37° C. using water bath before its use. Test solution is prepared by adding the DMSO working solution of the reference or test compound (2 μL; 100 μM) to the selected plasma (198 μL). Spiked plasma (200 μl) is transferred to sample compartment of RED insert placed in the teflon plate. 350 μl of 1×PBS is added in the buffer compartment of RED insert. The teflon plate is covered with sealing mat and agitated at 37° C. for 5 hours at 500 RPM in a Thermomixer. After incubation time, an aliquot of plasma (50 μl) from sample compartment is mixed with blank 1×PBS (50 μl). Similarly, an aliquot of buffer (50 μl) from buffer compartment is mixed with blank plasma (50 μl). Quenching solution (200 μL, acetonitrile containing internal standard tolbutamide (0.5 μg/mL)) is added and the resulting solutions are mixed using a vortex mixer and centrifuged (Eppendorf 5415, 13792 g). Supernatants are analyzed using a Mass Spectrometer. The sample (supernatant fraction, 5 μL) is injected into the LC-MS/MS instrument. • Chromatographic Conditions: LC-MS/MS: API 4000 LC-MS/MS Software: Analyst Version 1.6.1 Column Phenomenex Synergy 30*4.6*5μ Column Oven: 40° C. Mode: ESI Positive Injection volume: 5 μl Flow Rate: […] Buffer: 0.1% Formic acid in Water Method: Isocratic Method/Gradient Composition: A) 0.1% Formic acid in Water B) 0.1% Formic acid in Methanol
After the concentration of free drug and total drug has been determined by LCMS/MS, percent plasma protein binding can be calculated as follows:
[formula] Following this protocol, % fraction unbound in plasma from different species can be also measured.

Sequence of Human O-GlcNAcase (His-Tagged hOGA) (O60502 whole entry): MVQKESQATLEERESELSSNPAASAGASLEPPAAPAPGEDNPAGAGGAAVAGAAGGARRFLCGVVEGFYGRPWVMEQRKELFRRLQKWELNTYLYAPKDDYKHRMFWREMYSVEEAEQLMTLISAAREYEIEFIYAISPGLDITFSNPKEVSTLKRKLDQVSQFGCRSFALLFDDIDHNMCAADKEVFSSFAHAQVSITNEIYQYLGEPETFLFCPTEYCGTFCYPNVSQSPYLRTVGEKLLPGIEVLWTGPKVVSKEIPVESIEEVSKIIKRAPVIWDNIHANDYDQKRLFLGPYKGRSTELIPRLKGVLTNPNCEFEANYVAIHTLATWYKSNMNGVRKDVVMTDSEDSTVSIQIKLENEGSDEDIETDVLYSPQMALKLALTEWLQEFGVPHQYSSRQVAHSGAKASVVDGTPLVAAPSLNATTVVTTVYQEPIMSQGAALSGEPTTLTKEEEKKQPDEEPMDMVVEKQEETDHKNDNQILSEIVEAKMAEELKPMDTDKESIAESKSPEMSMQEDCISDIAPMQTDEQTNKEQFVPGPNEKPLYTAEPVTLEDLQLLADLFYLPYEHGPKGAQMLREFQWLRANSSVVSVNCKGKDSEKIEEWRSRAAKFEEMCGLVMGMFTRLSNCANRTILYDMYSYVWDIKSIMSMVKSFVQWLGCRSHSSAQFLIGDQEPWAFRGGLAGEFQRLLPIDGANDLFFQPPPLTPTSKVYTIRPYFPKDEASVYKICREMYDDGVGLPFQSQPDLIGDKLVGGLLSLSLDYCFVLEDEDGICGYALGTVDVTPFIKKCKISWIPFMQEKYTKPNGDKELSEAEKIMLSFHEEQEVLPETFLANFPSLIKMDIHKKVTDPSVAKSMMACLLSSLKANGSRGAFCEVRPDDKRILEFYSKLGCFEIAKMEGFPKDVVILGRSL

With `Cc1nc2cc(C(C)N3CCN(c4ncc(S(C)(=N)=O)cn4)CC3)ccc2s1` (single isomer, unassigned) [Example 51], in series [1], the IC50 is under 50 nM. Moreover, the fraction unbound at 5 h, 1 µM in series [2] was found to be 0.0838.

Take `Cc1nc2cc(C(C)N3CCN(c4ncc(S(C)(=N)=O)cn4)CC3)ccc2s1` (single isomer, unassigned) [Example 53]: in series [1], the IC50 is under 50 nM. The “% fraction unbound in mouse plasma” value in series [2] was determined as 12.81%.

For `CC(c1ccc2scnc2c1)N1CCN(c2ccc(S(C)(=N)=O)cn2)CC1` (racemic) [Example 26, (6-(4-(1-(benzo[d]thiazol-5-yl)ethyl)piperazin-1-yl)pyridin-3-yl)(imino)(methyl)-λ^6-sulfanone], in series [1], the IC50 is under 50 nM. In addition, the fraction unbound at 5 h, 1 µM in series [2] turned out to be 0.18.

On to `Cc1nc2cc(C(C)N3CCN(c4ncc(S(C)(=N)=O)cn4)CC3)ccc2s1` (racemic) [Example 42, Imino(methyl)(2-(4-(1-(2-methylbenzo[d]thiazol-5-yl)ethyl)piperazin-1-yl)pyrimidin-5-yl)-λ^6-sulfanone], for which the IC50 in series [1] was under 50 nM. Further, the fraction unbound at 5 h, 1 µM in series [2] came to 0.101.

Take `CN=S(C)(=O)c1ccc(N2CCN(C(C)c3ccc4sc(C)nc4c3)CC2)nc1` (racemic) [Example 47, methyl(6-(4-(1-(2-methylbenzo[d]thiazol-5-yl)ethyl)piperazin-1-yl)pyridin-3-yl)(methylimino)-λ^6-sulfanone]: the IC50 in series [1] lay within 50 to 200 nM. For the same compound, the fraction unbound at 5 h, 1 µM in series [2] amounted to 0.0959.

For the compound `COCCN=S(C)(=O)c1cnc(N2CCN(C(C)c3ccc4c(c3)OCC4)CC2)nc1` (single isomer, unassigned) [Example 17], in series [1], the IC50 was under 50 nM. For the same compound, in series [2], the fraction unbound at 5 h, 1 µM was found to be 0.208.

As to `CCS(=N)(=O)c1cnc(N2CCN(C(C)c3ccc4scnc4c3)CC2)nc1` (racemic) [Example 23, (2-(4-(1-(benzo[d]thiazol-5-yl)ethyl)piperazin-1-yl)pyrimidin-5-yl)(ethyl)(imino)-λ^6-sulfanone], the IC50 in series [1] is under 50 nM. In addition, in series [2], the fraction unbound at 5 h, 1 µM came out at 0.215.

`CC(c1ccc2scnc2c1)N1CCN(c2ncc(C(=O)N=S(C)(C)=O)cn2)CC1` (racemic) [Example 32, 2-(4-(1-(benzo[d]thiazol-5-yl)ethyl)piperazin-1-yl)-N-(dimethyl(oxo)-λ^6-sulfanylidene)pyrimidine-5-carboxamide]: the IC50 in series [1] is under 50 nM. Also, the fraction unbound at 5 h, 1 µM in series [2] was 0.0535.

With `CC(c1ccc2c(c1)OCC2)N1CCN(c2ccc(S(C)(=N)=O)cc2)CC1` (racemic) [Example 11, (4-(4-(1-(2,3-dihydrobenzofuran-6-yl)ethyl)piperazin-1-yl)phenyl)(imino)(methyl)-λ^6-sulfanone], the IC50 in series [1] is under 50 nM. The fraction unbound at 5 h, 1 µM in series [2] was found to be 0.21.

In the case of `CC(c1ccc2scnc2c1)N1CCN(c2ncc(S(C)(=N)=O)cn2)CC1` (single isomer, unassigned) [Example 34, (2-(4-((S)-1-(benzo[d]thiazol-5-yl)ethyl)piperazin-1-yl)pyrimidin-5-yl)(imino)(methyl)-λ^6-sulfanone or (2-(4-((R)-1-(benzo[d]thiazol-5-yl)ethyl)piperazin-1-yl)pyrimidin-5-yl)(imino)(methyl)-λ^6-sulfanone], the IC50 in series [1] is under 50 nM. Also, in series [2], the fraction unbound at 5 h, 1 µM was found to be 0.257.

Take `CCS(=N)(=O)c1ccc(N2CCN(C(C)c3ccc4c(c3)OCC4)CC2)nc1` (racemic) [Example 6, (6-(4-(1-(2,3-dihydrobenzofuran-6-yl)ethyl)piperazin-1-yl)pyridin-3-yl)(ethyl)(imino)-λ^6-sulfanone]: the IC50 in series [1] was under 50 nM. For the same compound, in series [2], the fraction unbound at 5 h, 1 µM worked out at 0.261.

For the compound `COCCN=S(C)(=O)c1cnc(N2CCN(C(C)c3ccc4scnc4c3)CC2)nc1` (racemic) [Example 29, (2-(4-(1-(benzo[d]thiazol-5-yl)ethyl)piperazin-1-yl)pyrimidin-5-yl)((2-methoxyethyl)imino)(methyl)-λ^6-sulfanone], the IC50 in series [1] was under 50 nM. For the same compound, the fraction unbound at 5 h, 1 µM in series [2] worked out at 0.286.

On to `CC(c1ccc2c(c1)OCC2)N1CCN(c2ncc(S(C)(=N)=O)cn2)CC1` (single isomer, unassigned) [Example 12], for which the IC50 in series [1] is under 50 nM. Also, in series [2], the unbound share (fraction unbound) at 5 h, 1 µM was 0.424.

As for `CN=S(C)(=O)c1cnc(N2CCN(C(C)c3ccc4sc(C)nc4c3)CC2)nc1` (racemic) [Example 45, methyl(2-(4-(1-(2-methylbenzo[d]thiazol-5-yl)ethyl)piperazin-1-yl)pyrimidin-5-yl)(methylimino)-λ^6-sulfanone], in series [1], the IC50 is under 50 nM. Besides, in series [2], the fraction unbound at 5 h, 1 µM amounted to 0.214.

On to `Cc1nc2cc(C(C)N3CCN(c4ncc(S(C)(=N)=O)cn4)CC3)ccc2o1` (racemic) [Example 55, imino(methyl)(2-(4-(1-(2-methylbenzo[d]oxazol-5-yl)ethyl)piperazin-1-yl)pyrimidin-5-yl)-λ^6-sulfanone], for which the IC50 in series [1] lay in the range of 50 to 200 nM. In series [2], the free fraction (fraction unbound) at 5 h, 1 µM is 0.39.

As to `CC(c1ccc2c(c1)OCC2)N1CCN(c2ncc(C(=O)N=S(C)(C)=O)cn2)CC1` (racemic) [Example 10, 2-(4-(1-(2,3-dihydrobenzofuran-6-yl)ethyl)piperazin-1-yl)-N-(dimethyl(oxo)-λ^6-sulfanylidene)pyrimidine-5-carboxamide], in series [1], the IC50 is under 50 nM. Also, the fraction unbound at 5 h, 1 µM in series [2] was found to be 0.139.

For the compound `CC(c1ccc2scnc2c1)N1CCN(c2ncc(S(C)(=N)=O)cn2)CC1` (racemic) [Example 22, (2-(4-(1-(benzo[d]thiazol-5-yl)ethyl)piperazin-1-yl)pyrimidin-5-yl)(imino)(methyl)-λ^6-sulfanone], the IC50 in series [1] was under 50 nM. Further, in series [2], the fraction unbound at 5 h, 1 µM is 0.248.

Take `CC(c1ccc2c(c1)OCC2)N1CCN(c2ncc3c(n2)CCS(=N)(=O)C3)CC1` (racemic) [Example 61, 2-(4-(1-(2,3-dihydrobenzofuran-6-yl)ethyl)piperazin-1-yl)-6-imino-5,6,7,8-tetrahydro-6λ^4-thiopyrano[4,3-d]pyrimidine 6-oxide]: in series [1], the half-maximal inhibitory concentration (IC50) was under 50 nM. Besides, the fraction unbound at 5 h, 1 µM in series [2] stood at 0.113.

As to `CN=S(C)(=O)c1cnc(N2CCN(C(C)c3ccc4c(c3)OCC4)CC2)nc1` (racemic) [Example 8, (2-(4-(1-(2,3-dihydrobenzofuran-6-yl)ethyl)piperazin-1-yl)pyrimidin-5-yl)(methyl)(methylimino)-λ^6-sulfanone], the concentration for half-maximal inhibition (IC50) in series [1] was under 50 nM. Besides, the fraction unbound at 5 h, 1 µM in series [2] is 0.234.

For `Cc1nc2cc(C(C)N3CCN(c4ncc(S(C)(=O)=NC(C)C)cn4)CC3)ccc2s1` (racemic) [Example 49, (isopropylimino)(methyl)(2-(4-(1-(2-methylbenzo[d]thiazol-5-yl)ethyl)piperazin-1-yl)pyrimidin-5-yl)-λ^6-sulfanone], the IC50 in series [1] lay within 50 to 200 nM. The fraction unbound at 5 h, 1 µM in series [2] came to 0.0545.

Regarding `CC(c1ccc2scnc2c1)N1CCN(c2ncc(S(C)(=N)=O)cn2)CC1` (single isomer, unassigned) [Example 35], in series [1], the IC50 was under 50 nM. The “% fraction unbound in mouse plasma” value in series [2] came out at 33.7%.

Regarding `Cc1nc2cc(C(C)N3CCN(c4ccc(S(C)(=N)=O)cn4)CC3)ccc2s1` (racemic) [Example 46, imino(methyl)(6-(4-(1-(2-methylbenzo[d]thiazol-5-yl)ethyl)piperazin-1-yl)pyridin-3-yl)-λ^6-sulfanone], the IC50 in series [1] was under 50 nM. In series [2], the fraction unbound at 5 h, 1 µM stood at 0.115.

For `CCCS(=N)(=O)c1cnc(N2CCN(C(C)c3ccc4c(c3)OCC4)CC2)nc1` (racemic) [Example 4, (2-(4-(1-(2,3-dihydrobenzofuran-6-yl)ethyl)piperazin-1-yl)pyrimidin-5-yl)(imino)(propyl)-λ^6-sulfanone], the IC50 in series [1] was under 50 nM. Also, the fraction unbound at 5 h, 1 µM in series [2] is 0.142.
